{"source": "the supplement of paper PMC7017272", "key": {"UT-SCC-42A [1]": {"system": "UT-SCC-42A", "experiment": "drug sensitivity score (DSS); higher = more sensitive; extreme values may be limits of the assay", "conditions": "culture condition: plastic 2D (no matrix); treatment time: 3 days", "how_it_was_run": "(§1)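 HPV-negative HNSCC cell lines were plated at 500 cells/well in 384-well plates, either on plastic, on wells coated with Matrigel or Myogel (500 µg/mL), or embedded in Matrigel or Myogel plus rat collagen I. Each compound was tested at five 10-fold concentrations over 3 days. Viability was measured by CellTiter-Glo 2.0 luminescence, and IC50, maximal inhibition and drug sensitivity score came from percent-inhibition dose–response curves fitted in the FIMM pipeline after normalisation to vehicle (0.1% DMSO) and cell-killing control wells.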"}, "UT-SCC-28": {"system": "UT-SCC-28", "experiment": "drug sensitivity score (DSS); higher = more sensitive; extreme values may be limits of the assay", "conditions": "treatment time: 3 days", "how_it_was_run": "as §1"}, "UT-SCC-14 [2]": {"system": "UT-SCC-14", "experiment": "drug sensitivity score (DSS); higher = more sensitive; extreme values may be limits of the assay", "conditions": "treatment time: 3 days", "how_it_was_run": "as §1"}, "UT-SCC-24A": {"system": "UT-SCC-24A", "experiment": "relative IC50 (midpoint of the fitted curve; maximal inhibition may be below 50%); higher = less potent", "conditions": "treatment time: 3 days", "experimental": "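HNSCC cell lines (500 cells/well, 384-well) were cultured on plastic, on top of (2D) or embedded (3D) in Matrigel or human leiomyoma matrix Myogel (500 ug/mL; Myogel 3D mixed with rat collagen I). Cells were treated for 3 days with 5 ten-fold concentrations of each drug, and viability was read by CellTiter-Glo. Viability was normalised to DMSO (0% inhibition) and 100 uM benzethonium chloride (100% inhibition) controls and fitted with the FIMM DSRT pipeline to give IC50 (nM), maximal % inhibition and the drug sensitivity score (DSS). Suffixes _1/_2/_3 on drug names are replicates.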"}, "UT-SCC-42B": {"system": "UT-SCC-42B", "experiment": "relative IC50 (midpoint of the fitted curve; maximal inhibition may be below 50%); higher = less potent", "conditions": "treatment time: 3 days", "how_it_was_run": "as §1"}, "UT-SCC-73": {"system": "UT-SCC-73", "experiment": "relative IC50 (midpoint of the fitted curve; maximal inhibition may be below 50%); higher = less potent", "conditions": "treatment time: 3 days", "how_it_was_run": "as §1"}, "UT-SCC-81": {"system": "UT-SCC-81", "experiment": "relative IC50 (midpoint of the fitted curve; maximal inhibition may be below 50%); higher = less potent", "conditions": "treatment time: 3 days", "how_it_was_run": "as §1"}, "UT-SCC-44": {"system": "UT-SCC-44", "experiment": "relative IC50 (midpoint of the fitted curve; maximal inhibition may be below 50%); higher = less potent", "conditions": "treatment time: 3 days", "how_it_was_run": "as §1"}, "UT-SCC-42A [3]": {"system": "UT-SCC-42A", "experiment": "relative IC50 (midpoint of the fitted curve; maximal inhibition may be below 50%); higher = less potent", "conditions": "treatment time: 3 days", "how_it_was_run": "as §1"}, "UT-SCC-14 [4]": {"system": "UT-SCC-14", "experiment": "relative IC50 (midpoint of the fitted curve; maximal inhibition may be below 50%); higher = less potent", "conditions": "treatment time: 3 days", "how_it_was_run": "as §1"}, "[5]": {"conditions": "culture condition: embedded in Matrigel"}, "[6]": {"conditions": "culture condition: embedded in Myogel + collagen I"}, "[7]": {"conditions": "culture condition: on top of Matrigel"}, "[8]": {"conditions": "culture condition: plastic 2D (no matrix)"}, "[9]": {"conditions": "culture condition: on top of Myogel"}}, "note": "± gives the standard deviation of the averaged measurements.", "data": [{"compound": "C=CC(=O)Nc1cc2c(Nc3ccc(F)c(Cl)c3)ncnc2cc1OCCCN1CCOCC1", "note": "[Canertinib]", "values": [{"measurement": "drug sensitivity score", "setting": "UT-SCC-42A [1]", "result": "17.9 ± 0.98", "unit": "DSS"}, {"measurement": "drug sensitivity score", "setting": "UT-SCC-28; [5]", "result": "4.2 ± 0.5", "unit": "DSS"}, {"measurement": "drug sensitivity score", "setting": "UT-SCC-28; [6]", "result": "8.6 ± 0.27", "unit": "DSS"}, {"measurement": "drug sensitivity score", "setting": "UT-SCC-28; [7]", "result": "7.8 ± 0.6", "unit": "DSS"}, {"measurement": "drug sensitivity score", "setting": "UT-SCC-28; [8]", "result": "7 ± 0.56", "unit": "DSS"}, {"measurement": "drug sensitivity score", "setting": "UT-SCC-14 [2]; [5]", "result": "27 ± 0.3", "unit": "DSS"}, {"measurement": "drug sensitivity score", "setting": "UT-SCC-14 [2]; [6]", "result": "11.2 ± 2.8", "unit": "DSS"}, {"measurement": "drug sensitivity score", "setting": "UT-SCC-14 [2]; [7]", "result": "26.6 ± 0.94", "unit": "DSS"}, {"measurement": "drug sensitivity score", "setting": "UT-SCC-14 [2]; [9]", "result": "16.5 ± 2.1", "unit": "DSS"}, {"measurement": "drug sensitivity score", "setting": "UT-SCC-14 [2]; [8]", "result": "25.6 ± 1.9", "unit": "DSS"}, {"measurement": "relative IC50", "setting": "UT-SCC-24A; [5]", "result": 0.0381, "unit": "µM"}, {"measurement": "relative IC50", "setting": "UT-SCC-24A; [6]", "result": 1.01, "unit": "µM"}, {"measurement": "relative IC50", "setting": "UT-SCC-24A; [7]", "result": 0.0848, "unit": "µM"}, {"measurement": "relative IC50", "setting": "UT-SCC-24A; [9]", "result": 1.63, "unit": "µM"}, {"measurement": "relative IC50", "setting": "UT-SCC-24A; [8]", "result": 0.0831, "unit": "µM"}, {"measurement": "relative IC50", "setting": "UT-SCC-42B; [5]", "result": 0.0759, "unit": "µM"}, {"measurement": "relative IC50", "setting": "UT-SCC-42B; [7]", "result": 0.299, "unit": "µM"}, {"measurement": "relative IC50", "setting": "UT-SCC-42B; [9]", "result": 2.47, "unit": "µM"}, {"measurement": "relative IC50", "setting": "UT-SCC-42B; [8]", "result": 0.808, "unit": "µM"}, {"measurement": "relative IC50", "setting": "UT-SCC-73; [5]", "result": 2.12, "unit": "µM"}, {"measurement": "relative IC50", "setting": "UT-SCC-73; [6]", "result": 2.07, "unit": "µM"}, {"measurement": "relative IC50", "setting": "UT-SCC-73; [7]", "result": 1.66, "unit": "µM"}, {"measurement": "relative IC50", "setting": "UT-SCC-73; [9]", "result": 1.75, "unit": "µM"}, {"measurement": "relative IC50", "setting": "UT-SCC-73; [8]", "result": 1.65, "unit": "µM"}, {"measurement": "relative IC50", "setting": "UT-SCC-81; [5]", "result": 0.0365, "unit": "µM"}, {"measurement": "relative IC50", "setting": "UT-SCC-81; [6]", "result": 1.51, "unit": "µM"}, {"measurement": "relative IC50", "setting": "UT-SCC-81; [7]", "result": 0.052, "unit": "µM"}, {"measurement": "relative IC50", "setting": "UT-SCC-81; [9]", "result": 1.59, "unit": "µM"}, {"measurement": "relative IC50", "setting": "UT-SCC-81; [8]", "result": 0.0696, "unit": "µM"}, {"measurement": "relative IC50", "setting": "UT-SCC-44; [5]", "result": 3.36, "unit": "µM"}, {"measurement": "relative IC50", "setting": "UT-SCC-44; [6]", "result": 2.36, "unit": "µM"}, {"measurement": "relative IC50", "setting": "UT-SCC-44; [7]", "result": 1.66, "unit": "µM"}, {"measurement": "relative IC50", "setting": "UT-SCC-44; [9]", "result": 2.05, "unit": "µM"}, {"measurement": "relative IC50", "setting": "UT-SCC-44; [8]", "result": 1.91, "unit": "µM"}, {"measurement": "relative IC50", "setting": "UT-SCC-42A [3]; [5]", "result": 0.253, "unit": "µM"}, {"measurement": "relative IC50", "setting": "UT-SCC-42A [3]; [6]", "result": 2.02, "unit": "µM"}, {"measurement": "relative IC50", "setting": "UT-SCC-42A [3]; [7]", "result": 0.205, "unit": "µM"}, {"measurement": "relative IC50", "setting": "UT-SCC-42A [3]; [9]", "result": 1.27, "unit": "µM"}, {"measurement": "relative IC50", "setting": "UT-SCC-42A [3]; [8]", "result": 0.238, "unit": "µM"}, {"measurement": "relative IC50", "setting": "UT-SCC-14 [4]; [5]", "result": 0.049, "unit": "µM"}, {"measurement": "relative IC50", "setting": "UT-SCC-14 [4]; [6]", "result": 0.97, "unit": "µM"}, {"measurement": "relative IC50", "setting": "UT-SCC-14 [4]; [7]", "result": 0.0591, "unit": "µM"}, {"measurement": "relative IC50", "setting": "UT-SCC-14 [4]; [9]", "result": 0.31, "unit": "µM"}, {"measurement": "relative IC50", "setting": "UT-SCC-14 [4]; [8]", "result": 0.0612, "unit": "µM"}]}]}
